This is an account of results in PubChem BioAssay AID1259407 (Chemical Carcinogenesis Research Information System (CCRIS), 2018).

This data set relates to CCRIS mutagenicity, Ames/micronucleus/aberration tests. Description: CCRIS mutagenicity studies.

The source made the active and inactive calls. No rule for the calls is given here.

With `CCCCNC(=O)c1cc(N)ccc1OC1CCCCC1`, the mutagenic call is “inactive; negative. data given only in abstract” (Test System: Ames Salmonella typhimurium, Strain/Indicator: TA98, Metabolic Activation: None, Method: Preincubation); “active; positive. a hydroxylated form of pa7 appears to be the active component” (Test System: Ames Salmonella typhimurium, Strain/Indicator: TA98, Metabolic Activation: Rat, Liver, S-9, Phenobarbital and beta-naphthoflavone, Method: Preincubation); “inactive; negative. data given only in abstract” (Test System: Ames Salmonella typhimurium, Strain/Indicator: TA100, Metabolic Activation: None, Method: Preincubation); “active; positive. a hydroxylated form of pa7 appears to be the active component” (Test System: Ames Salmonella typhimurium, Strain/Indicator: TA100, Metabolic Activation: Rat, Liver, S-9, Phenobarbital and beta-naphthoflavone, Method: Preincubation); “inactive; negative. data given only in abstract” (Test System: Ames Salmonella typhimurium, Strain/Indicator: TA102, Metabolic Activation: None, Method: Preincubation); “inactive; negative. data given only in abstract” (Test System: Ames Salmonella typhimurium, Strain/Indicator: TA1535, Metabolic Activation: None, Method: Preincubation). For the same molecule, the mutagenic call (Test System: Ames Salmonella typhimurium, Strain/Indicator: TA1537, Metabolic Activation: None, Method: Preincubation) is “inactive; negative. data given only in abstract”.
In the case of `O=[N+]([O-])c1cc([N+](=O)[O-])c2cccc3c2c1-c1ccccc1-3`, the mutagenic call (Test System: AMES SALMONELLA TYPHIMURIUM, Strain/Indicator: TA98(1,8-DNP6), Metabolic Activation: NONE, Method: STANDARD PLATE) is “active; positive”; the mutagenic call (Test System: AMES SALMONELLA TYPHIMURIUM, Strain/Indicator: TA98(NR), Metabolic Activation: NONE, Method: STANDARD PLATE) is “active; positive”; the mutagenic call (Test System: AMES SALMONELLA TYPHIMURIUM, Strain/Indicator: TA98, Metabolic Activation: NONE, Method: STANDARD PLATE) is “active; positive”.
Turning to `CCNc1cc2oc(=O)cc(C)c2cc1C`, the mutagenic call (Test System: AMES SALMONELLA TYPHIMURIUM, Strain/Indicator: TA1538, Metabolic Activation: NONE, Method: STANDARD PLATE) was “inactive; negative” and the mutagenic call (Test System: AMES SALMONELLA TYPHIMURIUM, Strain/Indicator: TA1538, Metabolic Activation: RAT, LIVER, S-9, AROCLOR 1254, Method: STANDARD PLATE) is “inactive; negative”.
For `O=[N+]([O-])c1ccc(Nc2ncnc3c2ncn3-c2ccc([N+](=O)[O-])cc2)cc1`, the mutagenic call by setting is: (Test System: AMES SALMONELLA TYPHIMURIUM, Strain/Indicator: TA98(1,8-DNP), Metabolic Activation: NONE, Method: PREINCUBATION) “inactive; negative”; (Test System: AMES SALMONELLA TYPHIMURIUM, Strain/Indicator: TA98(1,8-DNP), Metabolic Activation: RAT, LIVER, S-9, PCB, Method: PREINCUBATION) “inactive; negative”; (Test System: AMES SALMONELLA TYPHIMURIUM, Strain/Indicator: TA98(NR), Metabolic Activation: NONE, Method: PREINCUBATION) “inactive; negative”; (Test System: AMES SALMONELLA TYPHIMURIUM, Strain/Indicator: TA98(NR), Metabolic Activation: RAT, LIVER, S-9, PCB, Method: PREINCUBATION) “inactive; negative”; (Test System: AMES SALMONELLA TYPHIMURIUM, Strain/Indicator: TA98, Metabolic Activation: NONE, Method: PREINCUBATION) “inactive; negative”; (Test System: AMES SALMONELLA TYPHIMURIUM, Strain/Indicator: TA98, Metabolic Activation: RAT, LIVER, S-9, PCB, Method: PREINCUBATION) “inactive; negative”. In addition, the mutagenic call is, setting by setting: (Test System: AMES SALMONELLA TYPHIMURIUM, Strain/Indicator: TA100(1,8-DNP), Metabolic Activation: NONE, Method: PREINCUBATION) “inactive; negative”; (Test System: AMES SALMONELLA TYPHIMURIUM, Strain/Indicator: TA100(1,8-DNP), Metabolic Activation: RAT, LIVER, S-9, PCB, Method: PREINCUBATION) “inactive; negative”; (Test System: AMES SALMONELLA TYPHIMURIUM, Strain/Indicator: TA100(NR), Metabolic Activation: NONE, Method: PREINCUBATION) “inactive; negative”; (Test System: AMES SALMONELLA TYPHIMURIUM, Strain/Indicator: TA100(NR), Metabolic Activation: RAT, LIVER, S-9, PCB, Method: PREINCUBATION) “inactive; negative”; (Test System: AMES SALMONELLA TYPHIMURIUM, Strain/Indicator: TA100, Metabolic Activation: NONE, Method: PREINCUBATION) “inactive; negative”; (Test System: AMES SALMONELLA TYPHIMURIUM, Strain/Indicator: TA100, Metabolic Activation: RAT, LIVER, S-9, PCB, Method: PREINCUBATION) “inactive; negative”. Further, the mutagenic call is, setting by setting: (Test System: AMES SALMONELLA TYPHIMURIUM, Strain/Indicator: YG1020, Metabolic Activation: NONE, Method: PREINCUBATION) “inactive; negative”; (Test System: AMES SALMONELLA TYPHIMURIUM, Strain/Indicator: YG1020, Metabolic Activation: RAT, LIVER, S-9, PCB, Method: PREINCUBATION) “inactive; negative”; (Test System: AMES SALMONELLA TYPHIMURIUM, Strain/Indicator: YG1021, Metabolic Activation: RAT, LIVER, S-9, PCB, Method: PREINCUBATION) “active; positive”; (Test System: AMES SALMONELLA TYPHIMURIUM, Strain/Indicator: YG1024, Metabolic Activation: RAT, LIVER, S-9, PCB, Method: PREINCUBATION) “inactive; negative”; (Test System: AMES SALMONELLA TYPHIMURIUM, Strain/Indicator: YG1025, Metabolic Activation: NONE, Method: PREINCUBATION) “inactive; negative”; (Test System: AMES SALMONELLA TYPHIMURIUM, Strain/Indicator: YG1025, Metabolic Activation: RAT, LIVER, S-9, PCB, Method: PREINCUBATION) “inactive; negative”. In addition, the mutagenic call (Test System: AMES SALMONELLA TYPHIMURIUM, Strain/Indicator: YG1026, Metabolic Activation: NONE, Method: PREINCUBATION) was “inactive; negative”; the mutagenic call (Test System: AMES SALMONELLA TYPHIMURIUM, Strain/Indicator: YG1026, Metabolic Activation: RAT, LIVER, S-9, PCB, Method: PREINCUBATION) was “inactive; negative”; the mutagenic call (Test System: AMES SALMONELLA TYPHIMURIUM, Strain/Indicator: YG1029, Metabolic Activation: NONE, Method: PREINCUBATION) was “inactive; negative”; the mutagenic call (Test System: AMES SALMONELLA TYPHIMURIUM, Strain/Indicator: YG1029, Metabolic Activation: RAT, LIVER, S-9, PCB, Method: PREINCUBATION) was “inactive; negative”.
Regarding `CCCCOC(=O)[C@@H](C)Oc1ccc(Oc2ccc(C#N)cc2F)cc1`, the mutagenic call by setting is: (End Point: In vitro chromosomal aberrations, Test System: Chinese hamster lung (CHL) cells, Metabolic Activation: None) “active; positive (ploidy)”; (End Point: In vitro chromosomal aberrations, Test System: Chinese hamster lung (CHL) cells, Metabolic Activation: Rat, liver, S-9, Aroclor 1254) “inactive; negative”; (End Point: In vivo micronucleus, Test System: Bone marrow polychromatic erythgrocytes, Species: Mouse, Strain/Sex: ICR (Crj:CD-1)/ Female, Route: Oral (Gavage)) “inactive; negative”; (End Point: In vivo micronucleus, Test System: Bone marrow polychromatic erythgrocytes, Species: Mouse, Strain/Sex: ICR (Crj:CD-1)/ Male, Route: Oral (Gavage)) “inactive; negative”; (End Point: In vivo micronucleus, Test System: Bone marrow polychromatic erythrocytes, Species: Mouse, Strain/Sex: ICR (Crj:CD-1)/ Female, Route: Oral (Gavage)) “inactive; negative”; (End Point: In vivo micronucleus, Test System: Bone marrow polychromatic erythrocytes, Species: Mouse, Strain/Sex: ICR (Crj:CD-1)/ Male, Route: Oral (Gavage)) “inactive; negative”. For the same molecule, the mutagenic call was “inactive; negative” (Test System: Ames Salmonella typhimurium, Strain/Indicator: TA98, Metabolic Activation: None, Method: Plate incorporation); “inactive; negative” (Test System: Ames Salmonella typhimurium, Strain/Indicator: TA98, Metabolic Activation: Rat, liver, S-9, Aroclor-1254, Method: Plate incorporation); “inactive; negative” (Test System: Ames Salmonella typhimurium, Strain/Indicator: TA100, Metabolic Activation: None, Method: Plate incorporation); “inactive; negative” (Test System: Ames Salmonella typhimurium, Strain/Indicator: TA100, Metabolic Activation: Rat, liver, S-9, Aroclor-1254, Method: Plate incorporation); “inactive; negative” (Test System: Ames Salmonella typhimurium, Strain/Indicator: TA1535, Metabolic Activation: None, Method: Plate incorporation); “inactive; negative” (Test System: Ames Salmonella typhimurium, Strain/Indicator: TA1535, Metabolic Activation: Rat, liver, S-9, Aroclor-1254, Method: Plate incorporation). In addition, the mutagenic call is “inactive; negative” (Test System: Ames Salmonella typhimurium, Strain/Indicator: TA1537, Metabolic Activation: None, Method: Plate incorporation); “inactive; negative” (Test System: Ames Salmonella typhimurium, Strain/Indicator: TA1537, Metabolic Activation: Rat, liver, S-9, Aroclor-1254, Method: Plate incorporation); “inactive; negative” (Test System: E. coli, Strain/Indicator: WP2 uvrA, Metabolic Activation: None, Method: Standard plate); “inactive; negative” (Test System: E. coli, Strain/Indicator: WP2 uvrA, Metabolic Activation: Rat, liver, S-9, Aroclor-1254, Method: Standard plate); “inactive; negative” (Test System: Mouse lymphoma, Strain/Indicator: L5178Y cells (TK+/TK-), Metabolic Activation: None, Method: Suspension/plate); “inactive; negative” (Test System: Mouse lymphoma, Strain/Indicator: L5178Y cells (TK+/TK-), Metabolic Activation: Rat, liver, S-9, Aroclor-1254, Method: Suspension/plate).
